Reference: patent US8012949B2, “Bisphosphonate compounds and methods with enhanced potency for multiple targets including FPPS, GGPPS, and DPPS” (The Board of Trustees of the University of Illinois, priority 2004, dated 2011)
Like-named read-outs stand apart in the source and are kept apart here.

How the values were obtained:
[1] = Adsorption onto bone in vivo
Text: (§1) A potential drawback to the use of bisphosphonates in treating non-bone resorption diseases is expected to be that they would be rapidly adsorbed onto bone. […]

[2] = tested on: SF-268 (central nervous system glioblastoma); assay: SF-268 cell growth inhibition (MTT); assay type: cell-based, human; details: Table 1, experimental
Text: (§2) Cell Growth Inhibition Assays. […] A broth microdilution method was used to determine IC50 values for growth inhibition by each bisphosphonate. […] NBPs were typically initially dissolved in H2O (0.01 M) while NNBPs were typically dissolved in DMSO (0.01 M).
(§3) GraphPad PRISM® version 4.0 software for windows (GraphPad Software Inc., San Diego, Calif., www.graphpad.com) was used to fit the data to a rectangular hyperbolic function: I=(ImaxC)/(IC50+C); […]

human DPPS = molecular target: T1, human DPPS (Homo sapiens, UniProt Q5T2R2); assay: human DPPS enzyme inhibition; assay type: biochemical
T1 construct: made in house
T1 sequence (Q5T2R2 1-415): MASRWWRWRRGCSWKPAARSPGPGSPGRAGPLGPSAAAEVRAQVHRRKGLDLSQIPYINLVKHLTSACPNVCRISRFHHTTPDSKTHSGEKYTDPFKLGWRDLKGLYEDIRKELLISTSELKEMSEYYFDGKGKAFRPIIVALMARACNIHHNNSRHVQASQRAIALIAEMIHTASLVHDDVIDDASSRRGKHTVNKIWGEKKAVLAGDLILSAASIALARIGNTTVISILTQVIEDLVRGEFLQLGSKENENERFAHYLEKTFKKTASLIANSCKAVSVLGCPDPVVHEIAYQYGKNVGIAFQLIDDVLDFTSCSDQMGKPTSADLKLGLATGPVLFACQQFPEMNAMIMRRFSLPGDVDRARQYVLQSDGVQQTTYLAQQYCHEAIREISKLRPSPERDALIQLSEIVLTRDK
T1 sequence (Q86YH6 1-399 partner): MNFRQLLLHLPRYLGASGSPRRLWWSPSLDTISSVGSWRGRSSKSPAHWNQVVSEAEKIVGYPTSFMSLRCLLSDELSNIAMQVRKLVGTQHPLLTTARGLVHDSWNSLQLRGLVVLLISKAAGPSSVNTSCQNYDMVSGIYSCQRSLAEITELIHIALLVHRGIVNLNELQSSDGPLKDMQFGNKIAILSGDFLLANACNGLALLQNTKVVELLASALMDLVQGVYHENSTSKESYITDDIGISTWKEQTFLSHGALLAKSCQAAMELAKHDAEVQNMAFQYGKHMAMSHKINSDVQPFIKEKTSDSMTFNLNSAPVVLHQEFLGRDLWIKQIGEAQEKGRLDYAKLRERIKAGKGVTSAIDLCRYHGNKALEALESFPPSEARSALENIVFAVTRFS
Text: (§4) To test our polypharmaceutical hypothesis, we expressed three enzymes: human FPPS, GGPPS and DPPS, and tested each for their inhibition by a series of bisphosphonates.

[3] = tested on: MCF-7 (breast adenocarcinoma); assay: MCF-7 cell growth inhibition (MTT), incl. FOH/GGOH rescue; assay type: cell-based, human; details: for rescue from growth inhibition by geranylgeraniol (GGOH): GGOH 20 μM
Text: as §2
GraphPad PRISM® version 4.0 software for windows (GraphPad Software Inc., San Diego, Calif., www.graphpad.com) was used to fit the data to a rectangular hyperbolic function: I=(ImaxC)/(IC50+C);
For the “rescue” experiments, stock solutions of FOH or GGOH were prepared (in ethanol) and the requisite amounts added to the incubation media to produce a fixed 20 μM concentration.

[4] = tested on: NCI-H460 (lung large cell); assay: NCI-H460 cell growth inhibition (MTT); assay type: cell-based, human; details: Table 1, experimental
Text: as §2, §3

human FPPS = molecular target: T2, human FPPS (Homo sapiens, UniProt P14324); assay: human FPPS enzyme inhibition; assay type: biochemical
T2 construct: made in house
T2 sequence (P14324 1-419): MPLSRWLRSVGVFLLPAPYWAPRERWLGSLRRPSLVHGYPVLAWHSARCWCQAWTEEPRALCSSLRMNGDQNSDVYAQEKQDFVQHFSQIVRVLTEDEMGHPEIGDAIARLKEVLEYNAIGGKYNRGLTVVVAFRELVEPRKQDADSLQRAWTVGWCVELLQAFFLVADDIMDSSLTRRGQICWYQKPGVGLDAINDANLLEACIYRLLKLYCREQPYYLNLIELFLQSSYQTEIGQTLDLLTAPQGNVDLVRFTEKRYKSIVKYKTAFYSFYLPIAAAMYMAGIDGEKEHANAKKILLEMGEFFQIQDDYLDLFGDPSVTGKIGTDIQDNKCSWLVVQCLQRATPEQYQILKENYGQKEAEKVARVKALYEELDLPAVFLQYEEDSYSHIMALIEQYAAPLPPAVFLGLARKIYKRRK
Text: as §4

Vγ2Vδ2 T cells = assay: γδ T cell activation (TNF-α release and proliferation); assay type: cell-based, human
Experimental: γδ T Cell Assays. Vγ2Vδ2 T cell TNF-α release and proliferation were performed basically as described previously^1. Briefly, to measure bioactivity for Vγ2Vδ2 T cells, the CD4^+ JN.24, CD4^+ HF.2, CD8αα^+ 12G12, or the CD4^−8^− HD.108 Vγ2Vδ2 T cell clones were stimulated with phosphoantigens in the presence of CP.EBV (an EBV transformed B cell line) for CD4^+ clones or Va-2 (a transformed fibroblast) for CD8αα^+ and CD4^−8^− clones. CP.EBV and Va-2 were fixed with 0.05% glutaraldehyde (EM grade, Sigma, Mo.) for use as APCs. […] Curve fitting minima for each experiment (e.g. TNF-α release from JN.24 cells) were determined using the Global Fitting technique, as implemented in Prism 4.0. Curve fitting maxima were optimized for each individual compound without the use of any constraints.

MDA-MB-231 cells = assay: Matrigel invasion assay; assay type: cell-based, human
Text: Tumor cell invasiveness and in vivo results. […] .

SK-ES-1 sarcoma cells = assay: SK-ES-1 sarcoma mouse xenograft; details: daily intraperitoneal 5 μg, athymic nude mice, SK-ES-1 xenograft
bone resorption = assay: Bone resorption IC50
Text: as §1

T. brucei FPPS = T. brucei FPPS inhibition; assay type: biochemical, Trypanosoma brucei; details: Table 9
[5] = Homo sapiens, MCF7, FIG. 2A, read-out: IC50, MCF-7 tumor cell growth inhibition

Compound | adsorption onto bone in vivo [1] | SF-268 pIC50 (M) [2] | effect on DPPS (human DPPS) | DPPS pKi (human DPPS; Table 1, experimental) | rescue from growth inhibition by geranylgeraniol (GGOH) [3] | MCF-7 pIC50 (M) ([3]; Table 1, experimental) | NCI-H460 pIC50 (M) [4] | FPPS pKi (M) (human FPPS; Table 1, experimental) | γδ T cell activation (Vγ2Vδ2 T cells) | reduction in tumor cell growth (SK-ES-1 sarcoma cells) | IC50 [3, 5] | IC50 (bone resorption) | other results
O=P(O)(O)C(O)(Cc1cccc(-c2cccc(NS(=O)(=O)c3ccc4ccccc4c3)c2)c1)P(=O)(O)O [BPH-675, 1-Hydroxy-2-[3′-(Naphthalene-2-sulfonylamino)-biphenyl-3-yl]ethylidene-1,1-bisphosphonic acid] | only very weakly adsorbed | 5.2 M | no effect | 6.5 | essentially fully rescued | 5.2 M | 5.3 M | 5.9 M | no effect at all | – | – | – | IC50 ([3]; FIG. 2A, read-out: IC50, MCF-7 tumor cell growth inhibition): 5000 nM; effect on FPPS (human FPPS): no effect
CCCCCCCCCCCCOc1ccc[n+](CC(P(=O)(O)O)P(=O)(O)O)c1 [BPH-716] | – | – | – | – | – | – | – | – | – | – | – | – | IC50 (MDA-MB-231 cells): ~30 nM; fold more inhibitory than zoledronate, Matrigel invasion (MDA-MB-231 cells; versus zoledronate): about 1000 fold; γδ T cell activation EC50, times more active than Phosphostim (Vγ2Vδ2 T cells; versus Phosphostim (bromohydrin of IPP)): ~2 ×; γδ T cell activation, times more active than the most potent conventional bisphosphonates (Vγ2Vδ2 T cells; versus most potent conventional bisphosphonates): ~100 ×
O=P(O)(O)C(O)(Cn1ccnc1)P(=O)(O)O [zoledronate, reference compound] | – | – | inhibited | – | – | – | – | – | – | significant (p<0.01) reduction in tumor cell growth versus control | ~15000 nM | ~70 nM | IC50 (human DPPS): ~5000 nM; IC50 (MDA-MB-231 cells; Homo sapiens): ~40000 nM
CCCCCCCCCCOc1ccc[n+](CC(P(=O)([O-])O)P(=O)(O)O)c1 (centres unmarked) [BPH-715] | only very weakly adsorbed | – | – | – | only a partial rescue | – | – | – | potent activity | even more pronounced (p=0.032 versus zoledronate) | ~50 nM | ~800 nM | IC50 ([2]; Homo sapiens, SF-268, read-out: SF-268 pIC50 (converted)): 100 nM; Ki (human DPPS; Table 1, experimental, read-out: DPPS_pKi (converted)): 5.01 nM; rescue from growth inhibition by addition of farnesol ([3]; FOH fixed 20 μM): no rescue; IC50 ([3]; Homo sapiens, MCF7, Table 1, experimental, read-out: MCF-7 pIC50 (converted)): 200 nM; IC50 ([3]; Homo sapiens, MCF7, Table 2, -log10(value, M), read-out: MCF-7 Cell pIC50 (converted)): 107 nM; IC50 ([4]; Homo sapiens, NCI-H460, read-out: NCI-H460 pIC50 (converted)): 63.1 nM; Ki (human FPPS; Table 1, experimental, read-out: FPPS pKi (converted)): 50.1 nM; EC50 (Vγ2Vδ2 T cells; Homo sapiens, T-cell, Table 2, -log10(value, M), read-out: γδ T Cell Avg pED50 (converted)): 891 nM
N=C(N)NCC(O)(P(=O)(O)O)P(=O)(O)O [BPH-678] | – | 4.6 M | – | 7.4 | – | 4.7 M | 4.7 M | 7.9 M | – | – | – | – | MCF-7 Cell pIC50 (M) ([3]; Table 2, -log10(value, M)): 5.37 M; IC50 (human FPPS; Table 9, read-out: H. sapiens FPPS IC50): 1250 nM; γδ T Cell Avg pED50 (M) (Vγ2Vδ2 T cells; Table 2, -log10(value, M)): 4.22 M; IC50 (T. brucei FPPS): 25600 nM
